Patent US20090196878A1, “Intestinal epithelial glucose sensor” (priority 2004, published 2009)

Tests used:
SGLT1 expression [1] = experiment: Dietary trial, SGLT1 mRNA by real-time PCR in wild-type mice; type: in vivo, mouse; conditions: proximal and mid intestinal regions, low carbohydrate diet plus sucralose 2 mM, 2 weeks, qPCR
Procedure: (§1) Male CD-1 and C57BL/6 mice, six weeks old, from Charles River Laboratories were used. The α-gustducin knock out mouse was described by Wong et al. (1996); the T1R3 knock out mouse was described by Damak et al. 2003).
(§2) High and low carbohydrate diets were resp. TestDiet® 5810 and TestDiet® 5787-9. For the sucralose test, the low carbohydrate diet was supplemented with sucralose (1,6-dichloro-1,6-dideoxy-beta-D-fructofuranosyl-4-chloro-4-deoxy-alpha-galactopyranoside) at 2 mM.
(§3) Animals were killed by concussion followed by cervical dislocation. The entire small intestine was removed and flushed with ice-cold 0.9% NaCl, opened longitudinally, rinsed in saline and mucous removed by blotting. The small intestine was then divided into proximal, mid and distal sections and the mucosa removed by scraping. Mucosal scrapings were frozen immediately in liquid nitrogen and stored at −80° C. until use. […]
(§4) Second, groups of wildtype and T1R3 and α-gustducin KO mice were placed on each of three iso-caloric diets a) low carbohydrate, b) high carbohydrate, and c) low carbohydrate+artificial sweetener (sucralose), for two weeks. After this time the mice were killed and the small intestines were removed, divided into proximal, mid and distal regions, and SGLT1 expression, at protein and mRNA levels, were measured in each.

SGLT1 expression [2] = experiment: Dietary trial, SGLT1 protein by western blot of luminal membrane vesicles in wild-type mice; type: in vivo, mouse; conditions: low carbohydrate + sucralose diet, 2 weeks
Procedure: as §1, §2, §3, §4

SGLT1 expression [3] = experiment: Dietary trial, SGLT1 expression in T1R3 knock-out mice; type: in vivo, mouse; conditions: T1R3 KO mice, low-carbohydrate + sucralose diet, 2 weeks
Procedure: as §1, §2, §3, §4

SGLT1 expression [4] = experiment: Dietary trial, SGLT1 expression in α-gustducin knock-out mice; type: in vivo, mouse; conditions: α-gustducin KO mice, low-carbohydrate + sucralose diet, 2 weeks
Procedure: as §1, §2, §3, §4

[5] = reported, Roberts et al. 2000; cited from earlier work

## OC[C@H]1O[C@H](O[C@]2(CCl)O[C@H](CCl)[C@@H](O)[C@@H]2O)[C@H](O)[C@@H](O)[C@H]1Cl [sucralose, 1,6-dichloro-1,6-dideoxy-beta-D-fructofuranosyl-4-chloro-4-deoxy-alpha-galactopyranoside]
SGLT1 expression [1]
  increase in SGLT1 mRNA: 30-70%
SGLT1 expression [2]
  SGLT1 protein expression: increased
SGLT1 expression [3]
  SGLT1 mRNA: no increase
  SGLT1 protein: no increase
SGLT1 expression [4]
  SGLT1 mRNA: no increase
  SGLT1 protein: no increase
[5]
  hydrolysis, transport and metabolism within the mammalian small intestine: non-hydrolysed, non-transported and non-metabolised
